These results are taken from patent publication US11510932B2, “Prophylactic and therapeutic treatment of alzheimer's disease using phytic acid and phytate to reduce amyloid beta plaque and tau protein” (priority 2009, dated 2022).

The subject of data set [1] is MC65 cells. As to the kind of experiment: APP CTF-induced neurotoxicity (cell viability) in MC65 cells. The following applies: for attenuation of APP CTF-induced neurotoxicity (active/inactive): in vitro challenge test.
Data set [2] has as its system NGF-differentiated PC12 cells. The following applies: 10 μM; cited from earlier work.
For another data set, the system named is Abeta plaque. Description: Abeta plaque in brains of Alzheimer's transgenic mice versus control vehicle. The data set is classed as in vivo. As to conditions: 2% phytic acid, all three cases (FIGS. 4-6). On the procedure:
(§1) Applicant also submits Table 1 and FIGS. 4-6 showing data from in vivo testing of the subject matter compounds in Alzheimer's transgenic mice. These Alzheimer's transgenic mice are genetically altered to produce Abeta plaque, and were treated for about six months with compounds of the Applicant's invention. Namely, the drinking water was infused with phytic acid so that the final concentration of phytic acid in the drinking water was 2%.
After six months, the animals were put down for autopsy and necropsy so that Abeta plaque in the brains was assayed, separated and weighed.
FIGS. 4-6 are graphs comparing the tested compound in vivo with the control vehicle.

The test system of data set [3] is MC65 cells. As to the kind of experiment: Oxidative stress associated with APP CTF expression, hydrogen peroxide in cell media. The data set is classed as cell-based, human. The following applies: 100 μM. On the procedure:
In vitro studies were conducted in MC65 cells, an established human neuroblastoma line that conditionally expresses the first 17 amino-terminal residues and the 99 carboxy-terminal residues of amyloid precursor protein (APP CTF). Detectable APP CTF expression occurs within 3-4 h of tetracycline withdrawal, appearance of aggregates and initial losses of culture viability occurs at about 2 days and near complete death occurs by approximately 3 days.

The conditions of data set [4]: humans, ingestion of large doses; cited from earlier work.
The test system of data set [5] is Alzheimer's transgenic mice. Description: Toxicity and weight loss in treated Alzheimer's transgenic mice. The data set is classed as in vivo. As to conditions: 2% phytic acid in drinking water, about six months. As for the experimental part:
as §1

The test system of the next data set is amyloid-B peptide (AB). As to conditions: transgenic Alzheimer Disease mouse studies; cited from earlier work.
The subject of data set [6] is transgenic mouse model of Alzheimer's Disease. The following applies: cited from earlier work.

The structures appear in SMILES notation.

In the case of `O[C@H]1[C@H](O)[C@@H](O)[C@H](O)[C@@H](O)[C@H]1O` [myo inositol, reference compound], in the data set with MC65 cells [1], the “attenuation of APP CTF-induced neurotoxicity (active/inactive)” value (from here on “attenuation … (active/inactive)”) was “inactive”. Moreover, in data set [2], the “rescue from Ab-induced neurotoxicity” value is given as “rescues”.

On to `O=P(O)(O)O[C@H]1[C@H](OP(=O)(O)O)[C@@H](OP(=O)(O)O)[C@H](OP(=O)(O)O)[C@@H](OP(=O)(O)O)[C@H]1OP(=O)(O)O` [phytic acid, myo-inositol-hexakis (dihydrogen phosphate)], for which the “Abeta plaque compared to the control vehicle” value in the data set on Abeta plaque is “reduction in Abeta plaque”. Also, the “oxidative stress associated with APP CTF expression (hydrogen peroxide in the cell media)” value in the data set with MC65 cells [3] is recorded as “suppressed oxidative stress”. The EC50 in the data set on MC65 cells [1] (Homo sapiens, MC65, read-out: EC50 concentration, protection from APP CTF-induced death) is ~100 µM. Besides, the protection from cytotoxicity entry in the data set with MC65 cells [1] (MC65 cells, concentrations of 200 μM and higher) is given as “near complete protection”. In addition, the “attenuation … (active/inactive)” value in the data set on MC65 cells [1] is “active”. The “physiological discomfort or symptoms of toxicological action” value in data set [4] is reported as “elicits no physiological discomfort or symptoms of any toxicological action”. In data set [5], the “toxicity in the treated group” value was “no toxicity” and the “weight loss in the treated group” value was “nor any significant weight loss”.

Regarding `O[C@H]1[C@H](O)[C@@H](O)[C@H](O)[C@@H](O)[C@@H]1O` [scyllo inositol], the “aggregation of amyloid-B peptide (AB)” value in the data set with amyloid-B peptide (AB) is “inhibits and blocks the aggregation”. For the same compound, the “prevention and reversal of Alzheimer's Disease” value in data set [6] is “prevent and reverse Alzheimer's Disease”. Further, the “attenuation … (active/inactive)” value in the data set with MC65 cells [1] is “inactive”. In data set [2], the “rescue from Ab-induced neurotoxicity” value was “rescues”.
